Assay results taken from patent publication US20100261734A1, “Methods of Treating Bladder Dysfunction Using Netupitant” (Helsinn Healthcare S.A., priority 2009, published 2010).
Where two headings read alike, the source gives them in different places.

Tests used:
[1] = system: acetic acid (AA)-induced overactive bladder (OAB); test: Cystometric parameters in acetic acid (AA)-induced overactive bladder (OAB) in anesthetized guinea-pigs; assay type: in vivo; conditions: for Maximal ICI (intercontraction interval) increase, % of variation from basal values: 0.2% AA bladder infusion, anesthetized guinea-pigs; for Effect on ICI (intercontraction interval): from 10 min up to 60 min post-administration, 0.2% AA
Source text: The effect of netupitant (N) was studied on cystometric parameters in acetic acid (AA)-induced overactive bladder (OAB) in anesthetized guinea-pigs. Results were compared with those obtained with a control and L-733,060 (L), another potent and selective NK1 receptor antagonist. Adult female guinea-pigs were anesthetized with urethane, and the jugular vein and urinary bladder were catheterized for drug administration and intravesical pressure recording, respectively. The urinary bladder was continuously infused with either saline or 0.2% AA. After 30 min stabilization, N, L or their vehicle (glucose 5%) were administered in separate animals (n=10 per group). Intercontraction interval (ICI, sec), and amplitude of micturition (AM, mmHg) were analyzed at 10, 20, 40 and 60 min post administration. For each dose, maximal effects were expressed as % of variation from respective basal values. ED50% (doses inducing a 50% increase in ICI) were calculated using linear regressions.

[2] = Pharmacokinetic profile of netupitant in humans after a single oral dose; assay type: in vivo; conditions: for Cl/F / Kel / tlag / AUC(0-inf) / AUC(0-t) / Cmax / Tmax / half-life / Vd/F: healthy volunteers, mean, N = 4; for AUC(0-inf) / AUC(0-t) / Cmax / Tmax / half-life / Vd/F: human, plasma; for Vd/F: read-out: Vz/F
Method: The pharmacokinetic profile of netupitant (N) in humans was examined in a randomised, double-blind, placebo controlled study comprising 5 dose groups (10, 30, 100, 300 and 450 mg) with 6 subjects in each group, of whom four received netupitant and two received placebo.

For `Cc1ccccc1-c1cc(N2CCN(C)CC2)ncc1N(C)C(=O)C(C)(C)c1cc(C(F)(F)F)cc(C(F)(F)F)c1` [netupitant, 2-[3,5-bis(trifluoromethyl)phenyl]-N,2-dimethyl-N-[4-(2-methylphenyl)-6-(4-methylpiperazin-1-yl)pyridin-3-yl]propanamide], the “Maximal ICI (intercontraction interval) increase, % of variation from basal values” ([1]; 0.1 mg/kg i.v.) was “+51±15%”, the “Maximal ICI (intercontraction interval) increase, % of variation from basal values” ([1]; 0.3 mg/kg i.v.) was “+44±8%” and the “Maximal ICI (intercontraction interval) increase, % of variation from basal values” ([1]; 1 mg/kg i.v.) was “+69±8%”. The “Maximal effect on amplitude of micturition (AM), % of variation from basal values” ([1]; 1 mg/kg, 20 min after administration) was −13±6%, the “Maximal ICI (intercontraction interval) increase, % of variation from basal values” ([1]; 3 mg/kg i.v.) was “+96±20%” and the ED50 ([1]; Cavia porcellus, iv, calculated using linear regressions, read-out: ED50% (dose inducing a 50% increase in ICI)) was 0.62 mg/kg. The “Potency relative to L in view of ED50% values” ([1]; N versus L) was “about 16 fold”, the “Effect on amplitude of micturition (AM)” value ([1]; doses 0.1-3 mg/kg) was “devoid of significant effect on AM” and the “Effect on ICI (intercontraction interval)” value [1] was “dose-dependently and significantly increased ICI”. The Cl/F ([2]; 10 mg oral) was 44.0 L/h, the Kel ([2]; 10 mg oral) was 0.0435 h⁻¹ and the tlag ([2]; 10 mg oral) was 1.88 h. For the same compound, the Cl/F ([2]; 30 mg oral) was 35.5 L/h, the Kel ([2]; 30 mg oral) was 0.027 h⁻¹ and the tlag ([2]; 30 mg oral) was 1.75 h. The Cl/F ([2]; 100 mg oral) was 22.1 L/h, the Kel ([2]; 100 mg oral) was 0.0139 h⁻¹ and the tlag ([2]; 100 mg oral) was 1.88 h. For the same compound, the Cl/F ([2]; 300 mg oral) was 12.6 L/h, the Kel ([2]; 300 mg oral) was 0.0154 h⁻¹ and the tlag ([2]; 300 mg oral) was 0.81 h. It also gave a Cl/F ([2]; 450 mg oral) of 10.6 L/h, a Kel ([2]; 450 mg oral) of 0.0124 h⁻¹ and a tlag ([2]; 450 mg oral) of 1.26 h. For the same compound, the AUC(0-inf) ([2]; 10 mg oral) was 233 ng·h/mL, the AUC(0-t) ([2]; 10 mg oral) was 140 ng·h/mL and the Cmax ([2]; 10 mg oral) was 8.76 ng/mL. For the same compound, the Tmax ([2]; 10 mg oral) was 5.75 h, the half-life ([2]; 10 mg oral) was 16 h and the Vd/F ([2]; 10 mg oral) was 1010 L. For the same compound, the AUC(0-inf) ([2]; 30 mg oral) was 995 ng·h/mL, the AUC(0-t) ([2]; 30 mg oral) was 870 ng·h/mL and the Cmax ([2]; 30 mg oral) was 36 ng/mL. For the same compound, the Tmax ([2]; 30 mg oral) was 5.76 h, the half-life ([2]; 30 mg oral) was 29.1 h and the Vd/F ([2]; 30 mg oral) was 1320 L. It also gave an AUC(0-inf) ([2]; 100 mg oral) of 4800 ng·h/mL, an AUC(0-t) ([2]; 100 mg oral) of 4360 ng·h/mL and a Cmax ([2]; 100 mg oral) of 168 ng/mL. The Tmax ([2]; 100 mg oral) was 5 h, the half-life ([2]; 100 mg oral) was 54.2 h and the Vd/F ([2]; 100 mg oral) was 1710 L. It also gave an AUC(0-inf) ([2]; 300 mg oral) of 25200 ng·h/mL, an AUC(0-t) ([2]; 300 mg oral) of 23100 ng·h/mL and a Cmax ([2]; 300 mg oral) of 747 ng/mL. The Tmax ([2]; 300 mg oral) was 5 h, the half-life ([2]; 300 mg oral) was 48.1 h and the Vd/F ([2]; 300 mg oral) was 850 L. For the same compound, the AUC(0-inf) ([2]; 450 mg oral) was 43700 ng·h/mL, the AUC(0-t) ([2]; 450 mg oral) was 36600 ng·h/mL and the Cmax ([2]; 450 mg oral) was 1130 ng/mL. It also gave a Tmax ([2]; 450 mg oral) of 5.76 h, a half-life ([2]; 450 mg oral) of 59.7 h and a Vd/F ([2]; 450 mg oral) of 881 L. For the same compound, the “Plasma exposure (Cmax and AUC) versus dose” value ([2]; oral 10-450 mg, humans) was “increased super-proportionally with dose” and the “Time at which maximum plasma levels are reached post-dose” value ([2]; oral administration, humans) was “approximately 5 hours”.

With `FC(F)(F)c1cc(CO[C@H]2CCCN[C@H]2c2ccccc2)cc(C(F)(F)F)c1` [L-733,060, reference compound] the “Maximal ICI (intercontraction interval) increase, % of variation from basal values” ([1]; 3 mg/kg i.v.) was “+40±10%”, the “Maximal ICI (intercontraction interval) increase, % of variation from basal values” ([1]; 10 mg/kg i.v.) was “+76±11%” and the “Maximal effect on amplitude of micturition (AM), % of variation from basal values” ([1]; 10 mg/kg, 10 min after administration) was −28±5%. For the same compound, the “Effect on amplitude of micturition (AM)” value ([1]; 10 mg/kg, p<0.05 versus basal values) was “decreased significantly AM”, the “Effect on ICI (intercontraction interval)” value [1] was “dose-dependently and significantly increased ICI” and the “ED50% (dose inducing a 50% increase in ICI)” value ([1]; i.v., calculated using linear regressions) was 5.13 mg/kg.
